Results as given in patent US10851083B2, “Benzoimidazoles as prolyl hydroxylase inhibitors” (Janssen Pharmaceutica NV, priority 2008, dated 2020).

Tests used:
Hep-3B cells = assay: Cellular assay: EPO secretion in Hep-3B cells; format: cell-based, human; parameters: EPO secretion, % of control compound: dose or concentration left out as unconfirmed; settings: Homo sapiens, Hep3B, 24 h, EPO secretion as percentage of control compound 7-[(4-Chloro-phenyl)-(5-methyl-isoxazol-3-ylamino)-methyl]-quinolin-8-ol, read-out: Cellular % EPO Stimulation
human PHD2181-417 = human PHD2181-417 (Homo sapiens (Human), UniProt Q9GZT9); assay: PHD2 enzyme activity assay ([14C]-succinic acid production); format: biochemical; settings: PHD2181-417 polypeptide, HIF-1α peptide 10 μM, [5-14C]-2-oxoglutaric acid; 30 min pre-incubation; tested 10 μM to 3 nM;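 note: reaction ran 10 min with compound in Tris pH 7.5 buffer with catalase, DTT and ascorbate, labelled succinate freed of leftover 2-oxoglutarate by DNP precipitation, then beta counted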
Sequence of human PHD2181-417 (Q9GZT9 181-417): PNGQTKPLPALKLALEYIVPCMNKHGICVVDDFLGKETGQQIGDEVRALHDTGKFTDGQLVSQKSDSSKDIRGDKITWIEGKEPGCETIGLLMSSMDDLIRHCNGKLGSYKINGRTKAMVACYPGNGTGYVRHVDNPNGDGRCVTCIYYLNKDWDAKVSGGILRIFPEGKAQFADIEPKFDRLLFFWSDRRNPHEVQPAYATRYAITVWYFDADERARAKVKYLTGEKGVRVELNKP

Structure (SMILES)	EPO secretion, % of control compound (Hep-3B cells)	Enzyme pIC50 (human PHD2181-417)
O=C(O)c1cnn(-c2nc3nccnc3[nH]2)c1 [Example 184, 1-(1H-Imidazo[4,5-b]pyrazin-2-yl)-1H-pyrazole-4-carboxylic Acid]	8.3%	5.9
COc1ccc(Sc2cc3nc(-n4cc(C(=O)O)cn4)[nH]c3cc2C(F)(F)F)cc1 [Example 160, 1-[5-(4-Methoxy-phenylsulfanyl)-6-trifluoromethyl-1H-benzoimidazol-2-yl]-1H-pyrazole-4-carboxylic Acid]	36.1%	7.5
O=C(O)c1cnn(-c2nc3c(ccc4ccccc43)[nH]2)c1 [Example 115, 1-(3H-Naphtho[1,2-d]imidazol-2-yl)-1H-pyrazole-4-carboxylic Acid]	50%	6.1
COc1ccc(S(=O)(=O)c2cc3nc(-n4cc(C(=O)O)cn4)[nH]c3cc2Cl)cc1 [Example 84, 1-[6-Chloro-5-(4-methoxy-benzenesulfonyl)-1H-benzoimidazol-2-yl]-1H-pyrazole-4-carboxylic Acid]	42.7%	7.3
O=C(O)c1cnn(-c2nc3cc(Oc4ccccc4)c(C(F)(F)F)cc3[nH]2)c1 [Example 56, 1-(5-Phenoxy-6-trifluoromethyl-1H-benzoimidazol-2-yl)-1H-pyrazole-4-carboxylic Acid]	143%	7.2
CS(=O)(=O)c1cc2[nH]c(-n3cc(C(=O)O)cn3)nc2cc1Cl [Example 99, 1-(5-Chloro-6-methanesulfonyl-1H-benzoimidazol-2-yl)-1H-pyrazole-4-carboxylic Acid]	34.9%	7.4
O=C(O)c1cnn(-c2nc3cc(S(=O)(=O)CC4CCCCC4)c(Cl)cc3[nH]2)c1 [Example 175, 1-(6-Chloro-5-cyclohexylmethanesulfonyl-1H-benzoimidazol-2-yl)-1H-pyrazole-4-carboxylic Acid]	48.7%	7.7
C[S+]([O-])c1cc2[nH]c(-n3cc(C(=O)O)cn3)nc2cc1C(F)(F)F (stereo not drawn) [Example 108, 1-(6-Methanesulfinyl-5-trifluoromethyl-1H-benzoimidazol-2-yl)-1H-pyrazole-4-carboxylic Acid]	20.4%	7.3
O=C(O)c1cnn(-c2nc3cc(S(=O)(=O)c4ccc(Cl)c(Cl)c4)c(Cl)cc3[nH]2)c1 [Example 87, 1-[6-Chloro-5-(3,4-dichloro-benzenesulfonyl)-1H-benzoimidazol-2-yl]-1H-pyrazole-4-carboxylic Acid]	32.4%	6.68
COc1cc2[nH]c(-n3cc(C(=O)O)cn3)nc2cc1Cl [Example 46, 1-(6-Chloro-5-methoxy-1H-benzoimidazol-2-yl)-1H-pyrazole-4-carboxylic Acid]	76%	6.5
O=C(O)c1cnn(-c2nc3cc(Sc4ccccc4)c(Cl)cc3[nH]2)c1 [Example 62, 1-(6-Chloro-5-phenylsulfanyl-1H-benzoimidazol-2-yl)-1H-pyrazole-4-carboxylic Acid]	45.8%	6.75
CCC(=O)Nc1cc2nc(-n3cc(C(=O)O)cn3)[nH]c2cc1Cl [Example 140, 1-(6-Chloro-5-propionylamino-1H-benzoimidazol-2-yl)-1H-pyrazole-4-carboxylic Acid]	10%	6.4
COc1ccc(Sc2cc3nc(-n4cc(C(=O)O)cn4)[nH]c3cc2Cl)cc1 [Example 65, 1-[6-Chloro-5-(4-methoxy-phenylsulfanyl)-1H-benzoimidazol-2-yl]-1H-pyrazole-4-carboxylic Acid]	56.3%	6.6
CC(C)(C)c1ccc(CSc2cc3nc(-n4cc(C(=O)O)cn4)[nH]c3cc2Cl)cc1 [Example 67, 1-[5-(4-tert-Butyl-benzylsulfanyl)-6-chloro-1H-benzoimidazol-2-yl]-1H-pyrazole-4-carboxylic Acid]	11.7%	7.2
O=C(O)c1cnn(-c2nc3cc(N4CCOCC4)c(Cl)cc3[nH]2)c1 [Example 45, 1-(6-Chloro-5-morpholin-4-yl-1H-benzoimidazol-2-yl)-1H-pyrazole-4-carboxylic Acid]	30.9%	6.6
CCS(=O)(=O)c1cc2nc(-n3cc(C(=O)O)cn3)[nH]c2cc1F [Example 156, 1-(5-Ethylsulfonyl-6-fluoro-1H-benzoimidazol-2-yl)-1H-pyrazole-4-carboxylic Acid]	51.9%	7.4
O=C(O)c1cnn(-c2nc3cc(NS(=O)(=O)c4ccccc4)c(Cl)cc3[nH]2)c1 [Example 138, 1-(5-Benzenesulfonylamino-6-chloro-1H-benzoimidazol-2-yl)-1H-pyrazole-4-carboxylic Acid]	19%	6.8

Structure (SMILES)	EPO secretion, % of control compound (Hep-3B cells)	Enzyme pIC50 (human PHD2181-417)
O=C(O)c1cnn(-c2nc3cc(SCc4ccc(Cl)cc4)c(Cl)cc3[nH]2)c1 [Example 163, 1-[6-Chloro-5-(4-chloro-benzylsulfanyl)-1H-benzoimidazol-2-yl]-1H-pyrazole-4-carboxylic Acid]	37%	6.5
O=C(O)c1cnn(-c2nc3cc(Oc4ccc(Cl)cc4F)c(Cl)cc3[nH]2)c1 [Example 146, 1-[6-Chloro-5-(4-chloro-2-fluoro-phenoxy)-1H-benzoimidazol-2-yl]-1H-pyrazole-4-carboxylic Acid]	49.9%	7.2
COc1ccc(S(=O)(=O)c2cc3nc(-n4cc(C(=O)O)cn4)[nH]c3cc2C(F)(F)F)cc1 [Example 162, 1-[5-(4-Methoxy-benzenesulfonyl)-6-trifluoromethyl-1H-benzoimidazol-2-yl]-1H-pyrazole-4-carboxylic Acid]	45.8%	7.6
CSc1cc2[nH]c(-n3cc(C(=O)O)cn3)nc2cc1C(F)(F)F [Example 71, 1-(6-Methylsulfanyl-5-trifluoromethyl-1H-benzoimidazol-2-yl)-1H-pyrazole-4-carboxylic Acid]	114%	7.1
Cc1cccc(Sc2cc3nc(-n4cc(C(=O)O)cn4)[nH]c3cc2Cl)c1 [Example 60, 1-(6-Chloro-5-m-tolylsulfanyl-1H-benzoimidazol-2-yl)-1H-pyrazole-4-carboxylic Acid]	42.3%	6.9
O=C(O)c1cnn(-c2nc3cc(NCc4ccccc4)c(Cl)cc3[nH]2)c1 [Example 132, 1-(5-Benzylamino-6-chloro-1H-benzoimidazol-2-yl)-1H-pyrazole-4-carboxylic Acid]	52.6%	6.2
O=C(O)c1cnn(-c2nc3cc(Cl)c(Cl)cc3[nH]2)c1 [Example 2, 1-(5,6-Dichloro-1H-benzoimidazol-2-yl)-1H-pyrazole-4-carboxylic Acid]	152%	6.9
O=C(CN1CCOCC1)Nc1cc2nc(-n3cc(C(=O)O)cn3)[nH]c2cc1Cl [Example 142, 1-[6-Chloro-5-(2-morpholin-4-yl-acetylamino)-1H-benzoimidazol-2-yl]-1H-pyrazole-4-carboxylic Acid]	17%	6.4
O=C(O)c1cnn(-c2nc3cc(Oc4ccc(F)c(Cl)c4)c(Cl)cc3[nH]2)c1 [Example 148, 1-[6-Chloro-5-(3-chloro-4-fluoro-phenoxy)-1H-benzoimidazol-2-yl]-1H-pyrazole-4-carboxylic Acid]	38.1%	7.1
CS(=O)(=O)c1cc2[nH]c(-n3cc(C(=O)O)cn3)nc2cc1C(F)(F)F [Example 97, 1-(6-Methanesulfonyl-5-trifluoromethyl-1H-benzoimidazol-2-yl)-1H-pyrazole-4-carboxylic Acid]	75.9%	7.6
O=C(O)c1cnn(-c2nc3cc(S(=O)(=O)Cc4cccc(Cl)c4)c(Cl)cc3[nH]2)c1 [Example 174, 1-[6-Chloro-5-(3-chloro-phenylmethanesulfonyl)-1H-benzoimidazol-2-yl]-1H-pyrazole-4-carboxylic Acid]	40.9%	7.6
O=C(O)c1cnn(-c2nc3cc(NC(=O)c4ccccc4)c(Cl)cc3[nH]2)c1 [Example 141, 1-(5-Benzoylamino-6-chloro-1H-benzoimidazol-2-yl)-1H-pyrazole-4-carboxylic Acid]	33%	6.6
O=C(O)c1cnn(-c2nc3cc(S(=O)(=O)Cc4ccccc4)c(Cl)cc3[nH]2)c1 [Example 89, 1-(6-Chloro-5-phenylmethanesulfonyl-1H-benzoimidazol-2-yl)-1H-pyrazole-4-carboxylic Acid]	28.4%	7.5
COc1cccc(Sc2cc3nc(-n4cc(C(=O)O)cn4)[nH]c3cc2Cl)c1 [Example 64, 1-[6-Chloro-5-(3-methoxy-phenylsulfanyl)-1H-benzoimidazol-2-yl]-1H-pyrazole-4-carboxylic Acid]	38.3%	6.9
O=C(O)c1cnn(-c2nc3cc(S(=O)(=O)Cc4ccc(Cl)cc4)c(Cl)cc3[nH]2)c1 [Example 173, 1-[6-Chloro-5-(4-chloro-phenylmethanesulfonyl)-1H-benzoimidazol-2-yl]-1H-pyrazole-4-carboxylic Acid]	60.4%	7.8
CC(C)Sc1cc2[nH]c(-n3cc(C(=O)O)cn3)nc2cc1Cl [Example 77, 1-(5-Chloro-6-isopropylsulfanyl-1H-benzoimidazol-2-yl)-1H-pyrazole-4-carboxylic Acid]	153%	6.8
